The target in assay [1] is T1, Culex pipiens AChE1, resistant SR strain (serine at position 119, G119S) (Culex pipiens, UniProt Q86GC8, G247S).
T1 construct: The cDNAs encoding the AChE1s of, respectively, the strain S-LAB and the strain SR were cloned in the eukaryotic expression vector pAc5.1/V5-His; V5-His (from the vector pAc5.1/V5-His); made in house; host or cells: Drosophila Schneider S2 cells, transiently transfected; Triton X-100 cell extract, not purified
Nature of the assay: Acetylcholinesterase activity of recombinant resistant AChE1 (S2 cell extracts) with propoxur. Format: biochemical. As to conditions: glycine247(119)→serine247(119) mutant (SR); 10^−4 M and 10^−2 M of propoxur; FIG. 10. An excerpt:
(§1) The cDNAs encoding the AChE1s of, respectively, the strain S-LAB and the strain SR were cloned in the eukaryotic expression vector pAc5.1/V5-His (INVITROGEN), according to conventional recombinant DNA techniques, by following standard protocols such as those described in Current Protocols in Molecular Biology, mentioned above. Drosophila cells (Schneider S2 cells) were transfected with the recombinant vectors thus obtained, using the Fugen® reagent (ROCHE), according to the manufacturer's instructions. 24 hours after transfection, the cells were harvested by centrifugation and then lyzed in a 0.25M phosphate buffer containing 1% Triton X-100. The acetylcholinesterase activity of the cell extracts obtained was measured, in the presence or in the absence of insecticide (propoxur), by the method as described in Bourguet et al., Biochemical Genetics, 1996, 34, 351-362.
(§2) The recombinant AChE1s of, respectively, the strain S-LAB and the strain SR were expressed in insect cells and the acetylcholinesterase activity was measured using cell extracts as described in example 1.

A further assay has as its system C. pipiens larvae. Nature of the assay: Larval mortality on exposure to propoxur (back crosses, ace-1 linkage study). It is filed as in vivo, Culex pipiens. As to the method:
With the females being indicated first, F1 crosses (S×R) and back crosses (F1×S-LAB and S-LAB×F1) were obtained by mass crossing of adults. A few larvae derived from the back crosses were treated with a dose of carbamate (propoxur, 4 mg/l) which kills 100% of sensitive larvae. The linkage between ace-1 and propoxur resistance was studied by RFLP in the surviving larvae, based on a 320 bp PCR product making it possible to identify the S and R alleles. The experiments were carried out independently, with S=SA1, S=SA4 and S=EDIT.
The linkage between the ace-1 gene and propoxur resistance was studied, in triplicate, in the following way: larvae from a backcross (S×R)×S were treated for a dose that is lethal for sensitive individuals and the ace-1 genotype was analyzed in the survivors, by PCR-RFLP.

The target in assay [2] is T2, Culex pipiens AChE1, sensitive S-LAB strain (glycine at position 119) (Culex pipiens, UniProt Q86GC8).
T2 construct: The cDNAs encoding the AChE1s of, respectively, the strain S-LAB and the strain SR were cloned in the eukaryotic expression vector pAc5.1/V5-His; V5-His (from the vector pAc5.1/V5-His); made in house; host or cells: Drosophila Schneider S2 cells, transiently transfected; Triton X-100 cell extract, not purified
Nature of the assay: Acetylcholinesterase activity of recombinant sensitive AChE1 (S2 cell extracts) with propoxur. Format: biochemical. Particulars: 10^−3 M of propoxur.
Description: as §1, §2

A further assay deals with AChE. Particulars: Abramson et al., Mol. Pharmacol., 1989, 36, 349; read-out: apparent affinity; cited from earlier work.

SMILES strings stand for the structures.

For the compound `CNC(=O)Oc1ccccc1OC(C)C` [propoxur], in assay [1], the “sensitivity of the acetylcholinesterase to the insecticide” value was “insensitive”. In addition, the “larvae killed in back crosses” value in the assay on C. pipiens larvae (larvae from backcross (S×R)×S, dose lethal for sensitive individuals, all back crosses) is given as 50%. For the same compound, the sensitive larvae killed in the assay on C. pipiens larvae (sensitive larvae, propoxur 4 mg/l) is listed as 100%. Besides, in assay [2], the “activity of the AChE1 inhibited” value is 90%.

Regarding `C=C1CCCC(C)(C)C1C/C=C(C=O)\C=C\OC(C)=O` (centres unmarked) [onchidal], the Kd on AChE is 300 µM.

The record behind these values is patent US8198061B2, “Acetylcholinesterase gene responsible for insecticide resistance and applications thereof” (priority 2002, dated 2012).
